# Laboratory results as given in US20080269298A1, “Benzimidazol-1-YL-thiophene compounds for the treatment of cancer” (priority 2002, published 2008).
# Legend:
# PLK1 kinase domain = target: T1, PLK1 kinase domain (Homo sapiens, UniProt P53350); assay: Assay for Inhibition of PLK1 (SPA enzyme activity); type: biochemical; conditions: 2 μM ATP, read-out: Ave pIC50 PLK Enzyme Inhibition (converted)
# T1 construct: made in house; host or cells: baculovirus-infected T. ni insect cells
# [1] = system: lung (H460) tumor cell line; assay: Methylene Blue Growth Inhibition Assay, H460; type: cell-based; conditions: Homo sapiens, NCI-H460, 72 h; Cell Line H460, 3 days; read-out: MeB IC50
# Method in brief: (§1)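 Seeded HFF, RKO or H460 cells treated 3 days with compound (0.3% DMSO), then stained with methylene blue; OD 620 nm, percent inhibition vs vehicle, IC50 by regression.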
# [2] = system: colon (HCT116) tumor cell line; assay: Methylene Blue Growth Inhibition Assay, HCT116; type: cell-based; conditions: Homo sapiens, HCT-116, 72 h; Cell Line HCT116, 3 days; read-out: MeB IC50
# Method in brief: (§2)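 Methylene blue dye retained by cells after a 3-day, 37° C compound incubation in DMEM/10% FBS (0.3% DMSO) served as the biomass readout at 620 nm. IC50 values were interpolated by nonlinear regression against vehicle wells.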
# [3] = system: Normal Human foreskin fibroblasts (HFF); assay: Methylene Blue Growth Inhibition Assay, HFF; type: cell-based; conditions: 72 h, Cell Line HFF, 3 days, read-out: MeB IC50
# Method in brief: as §1
# [4] = system: breast tumor (MCF7) cell line; assay: Methylene Blue Growth Inhibition Assay, MCF7; type: cell-based; conditions: Homo sapiens, 72 h; Cell Line MCF7, 3 days; read-out: MeB IC50
# Method in brief: as §2
# [5] = system: prostate (PC3) tumor cell line; assay: Methylene Blue Growth Inhibition Assay, PC3; type: cell-based; conditions: Homo sapiens, 72 h; Cell Line PC3, 3 days; read-out: MeB IC50
# Method in brief: as §2
# [6] = system: colon (RKO) tumor cell line; assay: Methylene Blue Growth Inhibition Assay, RKO; type: cell-based; conditions: Homo sapiens, 72 h, 3 days, read-out: MeB IC50
# Method in brief: as §1
# T1 sequence (P53350 21-346): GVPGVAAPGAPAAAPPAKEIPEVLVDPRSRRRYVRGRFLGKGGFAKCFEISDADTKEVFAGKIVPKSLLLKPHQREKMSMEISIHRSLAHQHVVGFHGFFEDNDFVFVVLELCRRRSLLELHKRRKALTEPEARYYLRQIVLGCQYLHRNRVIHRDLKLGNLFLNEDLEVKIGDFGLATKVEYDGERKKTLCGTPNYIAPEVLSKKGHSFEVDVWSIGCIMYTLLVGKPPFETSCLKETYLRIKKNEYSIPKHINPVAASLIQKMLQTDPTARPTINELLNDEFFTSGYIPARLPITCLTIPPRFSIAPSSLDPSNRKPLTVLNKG
IC50 (PLK1 kinase domain),IC50 [1],IC50 [2],IC50 [4],IC50 [5],IC50 [6],Compound,IC50 [3]
< 0.1 µM,1 to 10 µM,1 to 10 µM,1 to 10 µM,> 10 µM,1 to 10 µM,"COc1cc2ncn(-c3cc(OCc4ccccc4C(C)=O)c(C(N)=O)s3)c2cc1OC [Example 105, 3-[(2-Acetylbenzyl)oxy]-5-(5,6-dimethoxy-1H-benzimidazol-1-yl)thiophene-2-carboxamide]",> 10 µM
< 0.1 µM,1 to 10 µM,1 to 10 µM,1 to 10 µM,> 10 µM,1 to 10 µM,"COc1cc2ncn(-c3cc(OCc4cccc(N)c4)c(C(N)=O)s3)c2cc1OC [Example 96, 3-[(3-Aminobenzyl)oxy]-5-(5,6-dimethoxy-1H-benzimidazol-1-yl)thiophene-2-carboxamide]",> 10 µM
< 0.1 µM,1 to 10 µM,1 to 10 µM,1 to 10 µM,> 10 µM,1 to 10 µM,"COc1cc2ncn(-c3cc(OCc4ccccc4S(C)(=O)=O)c(C(N)=O)s3)c2cc1OC [Example 99, 5-(5,6-Dimethoxy-1H-benzimidazol-1-yl)-3-{[2-(methylsulfonyl)benzyl]oxy}thiophene-2-carboxamide]",> 10 µM
< 0.1 µM,1 to 10 µM,1 to 10 µM,1 to 10 µM,1 to 10 µM,< 1 µM,"NC(=O)c1sc(-n2cnc3cc(F)c(OCCN4CCOCC4)cc32)cc1OCc1ccccc1C(F)(F)F [Example 140, 5-[5-Fluoro-6-(2-morpholin-4-ylethoxy)-1H-benzimidazol-1-yl]-3-{[2-(trifluoromethyl)benzyl]oxy}thiophene-2-carboxamide]",> 10 µM
0.1 to 10 µM,> 10 µM,> 10 µM,1 to 10 µM,> 10 µM,> 10 µM,"NC(=O)c1sc(-n2cnc3cc4c(cc32)OC(F)(F)O4)cc1OCc1ccccc1C(F)(F)F [Example 88, 5-(2,2-Difluoro-5H-[1,3]dioxolo[4,5-f]benzimidazol-5-yl)-3-{[2-(trifluoromethyl)benzyl]oxy}thiophene-2-carboxamide]",> 10 µM
< 0.1 µM,< 1 µM,< 1 µM,< 1 µM,1 to 10 µM,< 1 µM,"NC(=O)c1sc(-n2cnc3ccccc32)cc1OCc1ccccc1[N+](=O)[O-] [Example 117, 5-(1H-Benzimidazol-1-yl)-3-[(2-nitrobenzyl)oxy]thiophene-2-carboxamide]",> 10 µM
< 0.1 µM,1 to 10 µM,1 to 10 µM,1 to 10 µM,> 10 µM,1 to 10 µM,"NC(=O)c1sc(-n2cnc3cc4c(cc32)OCCO4)cc1OCc1ccccc1C(F)(F)F [Example 123, 5-(6,7-Dihydro-1H-[1,4]dioxino[2,3f]benzimidazol-1-yl)-3-{[2-(trifluoromethyl)benzyl]-oxy}thiophene-2-carboxamide]",1 to 10 µM
< 0.1 µM,> 10 µM,> 10 µM,> 10 µM,> 10 µM,> 10 µM,"COc1cc2ncn(-c3cc(OCc4ccccc4Br)c(C(=O)O)s3)c2cc1OC [Example 76, 3-[(2-Bromobenzyl)oxy]-5-(5,6-dimethoxy-1H-benzimidazol-1-yl)thiophene-2-carboxylic acid]",> 10 µM
< 0.1 µM,< 1 µM,< 1 µM,< 1 µM,> 10 µM,< 1 µM,"NC(=O)c1sc(-n2cnc3ccc(Br)cc32)cc1OCc1ccccc1C(F)(F)F [Example 62, 5-(6-Bromo-1H-benzimidazol-1-yl)-3-{[2-(trifluoromethyl)benzyl]-oxy}thiophene-2-carboxamide]",1 to 10 µM
